Our source for the IC50 values is patent US8163724B2, “Glucocorticosteroids, processes for their preparation, pharmaceutical compositions containing them and their use in therapy” (AstraZeneca AB, priority 2007, dated 2012).

As usually defined, the IC50 is the concentration at which inhibition is half-maximal.

The experiment deals with T1, recombinant human GR (Homo sapiens, UniProt P04150).
T1 construct: purchased Panvera/Invitrogen P2812 (kit P2893)
T1 sequence (P04150 1-777): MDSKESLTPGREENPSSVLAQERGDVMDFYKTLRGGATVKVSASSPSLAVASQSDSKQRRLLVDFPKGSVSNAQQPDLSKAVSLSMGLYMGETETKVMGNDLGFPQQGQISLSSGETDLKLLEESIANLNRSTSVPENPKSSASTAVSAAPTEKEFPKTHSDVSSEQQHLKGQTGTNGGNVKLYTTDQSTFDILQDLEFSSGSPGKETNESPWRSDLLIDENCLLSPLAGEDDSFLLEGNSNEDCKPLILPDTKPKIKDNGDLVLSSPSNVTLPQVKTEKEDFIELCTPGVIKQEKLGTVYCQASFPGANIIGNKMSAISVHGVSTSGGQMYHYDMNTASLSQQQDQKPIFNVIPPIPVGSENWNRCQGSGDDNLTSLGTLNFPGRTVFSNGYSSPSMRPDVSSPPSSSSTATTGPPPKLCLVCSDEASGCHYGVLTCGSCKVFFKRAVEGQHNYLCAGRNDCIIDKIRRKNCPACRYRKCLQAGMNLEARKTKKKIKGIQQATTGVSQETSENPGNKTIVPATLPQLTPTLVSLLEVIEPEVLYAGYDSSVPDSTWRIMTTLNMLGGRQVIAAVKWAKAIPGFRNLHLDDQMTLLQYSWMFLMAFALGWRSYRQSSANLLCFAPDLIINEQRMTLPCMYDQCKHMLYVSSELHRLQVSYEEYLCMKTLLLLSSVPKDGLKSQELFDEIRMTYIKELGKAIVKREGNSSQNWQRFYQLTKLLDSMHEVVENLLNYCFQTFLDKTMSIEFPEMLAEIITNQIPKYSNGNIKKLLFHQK
The experiment in a line: Human Glucocorticoid Receptor (GR) Assay (fluorescence polarization, Panvera/Invitrogen kit). Type of experiment: binding. The conditions noted are these: fluorescence polarization; GS Red tracer; 2 hours at room temperature; 100% control 10 μM Dexamethasone; read-out: Inhibition of GR binding, IC50. Put shortly:
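Fluorescence polarization competition with recombinant GR and GS Red fluorescent ligand plus stabilizing peptide and DTT in potassium phosphate/sodium molybdate/EDTA buffer with DMSO. Incubated 2 hours at room temperature in the dark; 0% control DMSO, 100% control 10 μM dexamethasone.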
On the technique in general: Fluorescence polarisation rises when a labelled molecule tumbles more slowly, as on binding a larger partner.
`C[C@]12Cc3cnn(-c4ccccn4)c3C=C1CC[C@@H]1[C@@H]2[C@@H](O)C[C@@]2(C)[C@H]1CC[C@]2(OC(=O)C1CC1)C(=O)OCC#N` [Example 143, Cyanomethyl(1R,3aS,3bS,10aR,10bS,11S,12aS)-1-[(cyclopropylcarbonyl)oxy]-11-hydroxy-10a,12a-dimethyl-7-pyridin-2-yl-1,2,3,3a,3b,4,5,7,10,11a,10b,11,12,12a-tetradecahydrocyclopenta[5,6]naphtho[1,2-f]indazole-1-carboxylate]: the IC50 amounted to 1.5 nM. As for `C[C@]12Cc3cnn(-c4ccc(F)c(CO)c4)c3C=C1CC[C@@H]1[C@@H]2[C@@H](O)C[C@@]2(C)[C@H]1CC[C@]2(OC(=O)C1CC1)C(=O)SCC#N` [Example 144, (1R,3aS,3bS,10aR,10bS,11S,12aS)-1-{[(Cyanomethyl)sulfanyl]carbonyl}-7-[4-fluoro-3-(hydroxymethyl)phenyl-]-11-hydroxy-10a,12a-dimethyl-1,2,3,3a,3b, 4,5,7,10,10a,11,12,12a-tetradecahydrocyclopenta[5,6]naphtho[1,2-f]indazol-1-yl Cyclopropanecarboxylate], the figure is 3.8 nM. For the molecule `C[C@]12Cc3cnn(-c4ccc(F)c(CO)c4)c3C=C1CC[C@@H]1[C@@H]2[C@@H](O)C[C@@]2(C)[C@H]1CC[C@]2(OC(=O)C1CC1)C(=O)OCC#N` [Example 145, Cyanomethyl(1R,3aS,3bS,10aR,10bS,11S,12aS)-1-[(cyclopropylcarbonyl)oxy]-7-[4-fluoro-3-(hydroxymethyl)phenyl]-11-hydroxy-10a,12a-dimethyl-1,2,3,3a,3b,4,5,7,10,10a,10b,11,12,12a-tetradecahydrocyclopenta[5,6]naphtho[1,2-f]indazole-1-carboxylate], the IC50 turned out to be 3.2 nM.

On to `C[C@]12Cc3cnn(-c4ccc(F)cc4)c3C=C1CC[C@@H]1[C@@H]2[C@@H](O)C[C@@]2(C)[C@H]1CC[C@]2(OC(=O)C1(C#N)CC1)C(=O)SCC#N` [Example 146, (1R,3aS,3bS,10aR,10bS,11S,12aS)-1-{[(Cyanomethyl)sulfanyl]carbonyl}-7-(4-fluorophenyl)-11-hydroxy-10a,12a-dimethyl-1,2,3,3a,3b,4,5,7,10,10a,10b,11,12,12a-tetradecahydrocyclopenta[5,6]naphtho[1,2-f]indazol-1-yl 1-cyanocyclopropane Carboxylate], for which the IC50 is 3.4 nM. As for `C[C@]12Cc3cnn(-c4ccccn4)c3C=C1CC[C@@H]1[C@@H]2[C@@H](O)C[C@@]2(C)[C@H]1CC[C@]2(OC(=O)C1CC1)C(=O)SCF` [Example 149, (1R,3aS,3bS,10aR,10bS,11S,12aS)-1-{[(Fluoromethyl)sulfanyl]carbonyl}-11-hydroxy-10a,12a-dimethyl-7-pyridin-2-yl-1,2,3,3a,3b,4,5,7,10,10a,10b,11,12,12a-tetradecahydrocyclopenta[5,6]naphtho[1,2-f]indazol-1-yl cyclopropane Carboxylate], the figure is 5 nM. As for `C[C@]12Cc3cnn(-c4ccc(Cl)cn4)c3C=C1CC[C@@H]1[C@@H]2[C@@H](O)C[C@@]2(C)[C@H]1CC[C@]2(OC(=O)C1CC1)C(=O)SCF` [Example 150, (1R,3aS,3bS,10aR,10bS,11S,12aS)-7-(5-Chloropyridin-2-yl)-1-{[(fluoromethyl)sulfanyl]carbonyl}-11-hydroxy-10a,12a-dimethyl-1,2,3,3a,3b,4,5,7,10,10a,10b,11,12,12a-tetradecahydrocyclopenta[5,6]naphtho[1,2-f]indazol-1-yl cyclopropane Carboxylate], the figure is 21 nM. Consider `C[C@]12Cc3cnn(-c4ccc(F)nc4)c3C=C1CC[C@@H]1[C@@H]2[C@@H](O)C[C@@]2(C)[C@H]1CC[C@]2(OC(=O)C1CC1)C(=O)SCC#N` [Example 152, (1R,3aS,3bS,10aR,10bS,11S,12aS)-1-{[(Cyanomethyl)sulfanyl]carbonyl}-7-(6-fluoropyridin-3-yl)-11-hydroxy-10a,12a-dimethyl-1,2,3,3a,3b,4,5,7,10,10a,10b,11,12,12a-tetradecahydrocyclopenta[5,6]naphtho[1,2-f]indazol-1-yl cyclopropanecarboxylate], for which the concentration for half-maximal inhibition (IC50) came to 7 nM. Take `CSC(=O)[C@@]1(OC(=O)C2CC2)CC[C@H]2[C@@H]3CCC4=Cc5c(cnn5-c5ccc(F)nc5)C[C@]4(C)[C@H]3[C@@H](O)C[C@@]21C` [Example 153, (1R,3aS,3bS,10aR,10bS,11S,12aS)-7-(6-Fluoropyridin-3-yl)-11-hydroxy-10a,12a-dimethyl-1-[(methylsulfanyl)carbonyl]-1,2,3,3a,3b,4,5,7,10,10a,10b,11,12,12a-tetradecahydrocyclopenta[5,6]naphtho[1,2-f]indazol-1-yl cyclopropanecarboxylate]: the IC50 is 2.4 nM. Take `COCSC(=O)[C@@]1(OC(=O)C2CC2)CC[C@H]2[C@@H]3CCC4=Cc5c(cnn5-c5ccc(F)nc5)C[C@]4(C)[C@H]3[C@@H](O)C[C@@]21C` [Example 154, (1R,3aS,3bS,10aR,10bS,11S,12aS)-7-(6-Fluoropyridin-3-yl)-11-hydroxy-1-{[(methoxymethyl)sulfanyl]carbonyl}-10a,12a-dimethyl-1,2,3,3a,3b,4,5,7,10,10a,10b,11,12,12a-tetradecahydrocyclopenta[5,6]naphtho[1,2-f]indazol-1-yl cyclopropanecarboxylate]: the IC50 stood at 5.9 nM.

Take `C[C@]12Cc3cnn(-c4ccc(F)nc4)c3C=C1CC[C@@H]1[C@@H]2[C@@H](O)C[C@@]2(C)[C@H]1CC[C@]2(OC(=O)C1CC1)C(=O)SCCO` [Example 155, (1R,3aS,3bS,10aR,10bS,11S,12aS)-7-(6-Fluoropyridin-3-yl)-11-hydroxy-1-{[(2-hydroxyethyl)sulfanyl]carbonyl}-10a,12a-dimethyl-1,2,3,3a,3b,4,5,7,10,10a,10b,11,12,12a-tetradecahydrocyclopenta[5,6]naphtho[1,2-f]indazol-1-yl cyclopropanecarboxylate]: the IC50 worked out at 1.9 nM. As to `COCC(=O)O[C@]1(C(=O)SCC#N)CC[C@H]2[C@@H]3CCC4=Cc5c(cnn5-c5ccc(F)nc5)C[C@]4(C)[C@H]3[C@@H](O)C[C@@]21C` [Example 156, (1R,3aS,3bS,10aR,10bS,11S,12aS)-1-{[(Cyanomethyl)sulfanyl]carbonyl}-7-(6-fluoropyridin-3-yl)-11-hydroxy-10a,12a-dimethyl-1,2,3,3a,3b,4,5,7,10,10a,10b,11,12,12a-tetradecahydrocyclopenta[5,6]naphtho[1,2-f]indazol-1-yl methoxyacetate], the IC50 came out at 1.3 nM.

Regarding `COCC(=O)O[C@]1(C(=O)SC)CC[C@H]2[C@@H]3CCC4=Cc5c(cnn5-c5ccc(F)nc5)C[C@]4(C)[C@H]3[C@@H](O)C[C@@]21C` [Example 157, (1R,3aS,3bS,10aR,10bS,11S,12aS)-7-(6-Fluoropyridin-3-yl)-11-hydroxy-10a,12a-dimethyl-1-[(methylsulfanyl)carbonyl]-1,2,3,3a,3b,4,5,7,10,10a,10b,11,12,12a-tetradecahydrocyclopenta[5,6]naphtho[1,2-f]indazol-1-yl Methoxyacetate], the IC50 turned out to be 1.1 nM. On to `COCSC(=O)[C@@]1(OC(=O)COC)CC[C@H]2[C@@H]3CCC4=Cc5c(cnn5-c5ccc(F)nc5)C[C@]4(C)[C@H]3[C@@H](O)C[C@@]21C` [Example 158, (1R,3aS,3bS,10aR,10bS,11S,12aS)-7-(6-Fluoropyridin-3-yl)-11-hydroxy-1-{[(methoxymethyl)sulfanyl]carbonyl}-10a,12a-dimethyl-1,2,3,3a,3b,4,5,7,10,10a,10b,11,12,12a-tetradecahydrocyclopenta[5,6]naphtho[1,2-f]indazol-1-yl methoxyacetate], for which the IC50 is 2.4 nM.

With `COCC(=O)O[C@]1(C(=O)SCCO)CC[C@H]2[C@@H]3CCC4=Cc5c(cnn5-c5ccc(F)nc5)C[C@]4(C)[C@H]3[C@@H](O)C[C@@]21C` [Example 159, (1R,3aS,3bS,10aR,10bS,11S,12aS)-7-(6-Fluoropyridin-3-yl)-11-hydroxy-1-{[(2-hydroxyethyl)sulfanyl]carbonyl}-10a,12a-dimethyl-1,2,3,3a,3b,4,5,7,10,10b,11,12,12a-tetradecahydrocyclopenta[5,6]naphtho[1,2-f]indazol-1-yl methoxyacetate], the IC50 stood at 3.6 nM.

Consider `C[C@]12Cc3cnn(-c4ccc(F)nc4)c3C=C1CC[C@@H]1[C@@H]2[C@@H](O)C[C@@]2(C)[C@H]1CC[C@]2(OC(=O)c1cocn1)C(=O)SCC#N` [Example 160, (1R,3aS,3bS,10aR,10bS,11S,12aS)-1-{[(Cyanomethyl)sulfanyl]carbonyl}-7-(6-fluoropyridin-3-yl)-11-hydroxy-10a,12a-dimethyl-1,2,3,3a,3b,4,5,7,10,10a,10b,11,12,12a-tetradecahydrocyclopenta[5,6]naphtho[1,2-f]indazol-1-yl 1,3-oxazole-4-carboxylate], for which the IC50 was found to be 2.1 nM.
